# Molecular target: human VPS34 (Homo sapiens (Human), UniProt Q8NEB9)
# Test: Human VPS34 enzyme assay (Adapta TR-FRET ADP detection)
# Assay type: biochemical
# Set-up: Percent Inhibition: dose or concentration left out as unconfirmed
# Conditions: for IC50: IC50 range class
# Sequence of human VPS34 (Q8NEB9 whole entry): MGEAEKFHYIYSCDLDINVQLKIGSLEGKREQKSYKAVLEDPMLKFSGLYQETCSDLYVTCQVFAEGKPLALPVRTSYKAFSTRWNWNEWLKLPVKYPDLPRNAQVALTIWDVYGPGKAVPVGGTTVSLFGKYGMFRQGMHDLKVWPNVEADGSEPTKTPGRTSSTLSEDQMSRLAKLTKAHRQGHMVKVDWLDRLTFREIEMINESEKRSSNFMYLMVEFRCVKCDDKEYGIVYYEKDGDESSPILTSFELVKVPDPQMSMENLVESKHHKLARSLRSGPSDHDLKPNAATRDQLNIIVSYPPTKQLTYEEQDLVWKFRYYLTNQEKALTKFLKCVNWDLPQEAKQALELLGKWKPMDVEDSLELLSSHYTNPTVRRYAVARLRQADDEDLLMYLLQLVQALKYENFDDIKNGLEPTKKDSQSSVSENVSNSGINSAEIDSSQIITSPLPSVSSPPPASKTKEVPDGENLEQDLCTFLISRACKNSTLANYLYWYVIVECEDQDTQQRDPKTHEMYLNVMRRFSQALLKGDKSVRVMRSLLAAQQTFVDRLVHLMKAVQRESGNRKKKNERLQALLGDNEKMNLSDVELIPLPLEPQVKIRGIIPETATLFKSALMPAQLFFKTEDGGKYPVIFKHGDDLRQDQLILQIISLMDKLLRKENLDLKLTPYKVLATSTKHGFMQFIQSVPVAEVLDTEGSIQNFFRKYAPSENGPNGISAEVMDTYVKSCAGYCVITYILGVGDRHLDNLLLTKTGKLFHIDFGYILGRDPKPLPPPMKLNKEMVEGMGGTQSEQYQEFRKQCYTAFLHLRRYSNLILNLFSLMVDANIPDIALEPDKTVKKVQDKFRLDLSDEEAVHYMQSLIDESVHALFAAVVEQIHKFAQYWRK
SMILES,IC50,Percent Inhibition
"CC(=O)Nc1cc(-c2cnc3c(c2)c(S(=O)(=O)N2CCCC2)cn3C)ccn1 [Compound I-151, N-{4-[1-methyl-3-(pyrrolidin-1-ylsulfonyl)-1H-pyrrolo[2,3-b]pyridin-5-yl]pyridin-2-yl}acetamide]",10 to 50 nM,
"Cc1nccc(Nc2cc(-c3cc(NS(=O)(=O)c4ccc(F)cc4F)c4ccnn4c3)ccn2)n1 [Compound I-486, 2,4-difluoro-N-(6-{2-[(2-methylpyrimidin-4-yl)amino]pyridin-4-yl}pyrazolo[1,5-a]pyridin-4-yl)benzenesulfonamide]",< 10 nM,
"CC(=O)Nc1cc(-c2cnc(C)c(NS(=O)(=O)c3cc(C)ccc3F)c2)ccn1 [Compound I-28, N-(5-{[(2-fluoro-5-methylphenyl)sulfonyl]amino}-6-methyl-3,4′-bipyridin-2′-yl)acetamide]",< 10 nM,
"CC(=O)Nc1cc(-c2cncc(NC(=O)c3ccccc3)c2)ccn1 [Compound I-13, N-(2′-acetamido-3,4′-bipyridin-5-yl)benzamide]",> 100 nM,
"CC(=O)Nc1cc(-c2cnc(C)c(OS(=O)(=O)N(C)C)c2)ccn1 [Compound I-359, 2′-acetamido-6-methyl-3,4′-bipyridin-5-yl dimethylsulfamate]",10 to 50 nM,
"CC(=O)Nc1cc(-c2cnc(Cl)c(S(=O)(=O)NC34CC(C3)C4)c2)ccn1 [Compound I-366, N-[5-(bicyclo[1.1.1]pent-1-ylsulfamoyl)-6-chloro-3,4′-bipyridin-2′-yl]acetamide]",10 to 50 nM,
"Cc1c(-c2ccnc(Nc3ccnc(C4CC4)n3)c2)cnc(Cl)c1NS(=O)(=O)c1ccc(F)cc1F [Compound I-296, N-{6-chloro-2′-[(2-cyclopropylpyrimidin-4-yl)amino]-4-methyl-3,4′-bipyridin-5-yl}-2,4-difluorobenzenesulfonamide]",10 to 50 nM,
"Cc1ncc(-c2ccnc(NC(=O)C3CCC3)c2)cc1NS(=O)(=O)c1ccc(F)cc1F [Compound I-305, N-(5-{[(2,4-difluorophenyl)sulfonyl]amino}-6-methyl-3,4′-bipyridin-2′-yl)cyclobutanecarboxamide]",10 to 50 nM,
"CC(=O)Nc1cc(-c2cnc3c(c2)S(=O)(=O)N[C@H](c2ccccc2)CO3)ccn1 [Compound I-420, (R)-N-(4-(1,1-dioxido-3-phenyl-3,4-dihydro-2H-pyrido[2,3-b][1,4,5]oxathiazepin-8-yl)pyridin-2-yl)acetamide]",> 100 nM,
"COc1ncc(-c2ccnc(NC(C)=O)c2)cc1NC(=O)c1ccc(F)cc1F [Compound I-347, N-(2′-acetamido-6-methoxy-3,4′-bipyridin-5-yl)-2,4-difluorobenzamide]",> 100 nM,
"CC(=O)Nc1cc(-c2cnc(C)c(N3CC=CS3(=O)=O)c2)ccn1 [Compound I-416, N-[5-(1,1-dioxidoisothiazol-2(3H)-yl)-6-methyl-3,4′-bipyridin-2′-yl]acetamide]",10 to 50 nM,
"CC(=O)Nc1cc(-c2cnc(C)c(OS(=O)(=O)c3ccc(F)cc3F)c2)ccn1 [Compound I-478, 2′-acetamido-6-methyl-3,4′-bipyridin-5-yl 2,4-difluorobenzenesulfonate]",10 to 50 nM,
"Cc1ncc(-c2ccnc(Nc3ccncn3)c2)cc1NS(=O)(=O)c1ccc(F)cc1F [Compound I-239, 2,4-difluoro-N-(6-methyl-2′-(pyrimidin-4-ylamino)-3,4′-bipyridin-5-yl]benzenesulfonamide]",< 10 nM,
"CC(=O)Nc1cc(-c2cnc(N)c(S(=O)(=O)N(C(C)C)C(C)C)c2)ccn1 [Compound I-77, N-[6-amino-5-(diisopropylsulfamoyl)-3,4′-bipyridin-2′-yl]acetamide]",< 10 nM,
"Cc1nccc(Nc2cc(-c3cncc(C(C)Oc4ccccc4F)c3)ccn2)n1 (stereo not drawn) [Compound I-422, 5-[1-(2-fluorophenoxy)ethyl]-N-(2-methylpyrimidin-4-yl)-3,4′-bipyridin-2′-amine]",10 to 50 nM,
"CC(=O)Nc1cc(-c2cnc3[nH]cc(S(=O)(=O)N(C)C)c3c2)ccn1 [Compound I-40, N-{4-[3-(dimethylsulfamoyl)-1H-pyrrolo[2,3-b]pyridin-5-yl]pyridin-2-yl}acetamide]",< 10 nM,
"CC(=O)Nc1cc(-c2cnc(N(C)C)c(C(=O)N(C)c3ccc(F)cc3F)c2)ccn1 [Compound I-174, 2′-Acetamido-N-(2,4-difluorophenyl)-6-(dimethylamino)-N-methyl-[3,4′-bipyridine]-5-carboxamide]",< 10 nM,
"Cc1nc(Nc2cc(-c3cnc(C)c(NS(=O)(=O)c4ccc(F)cc4F)c3)ccn2)ccc1C#N [Compound I-289, N-{2′-[(5-cyano-6-methylpyridin-2-yl)amino]-6-methyl-3,4′-bipyridin-5-yl}-2,4-difluorobenzenesulfonamide]",< 10 nM,
"CCc1c(-c2ccnc(NC(=O)C3CC3)c2)cnc(Cl)c1NS(=O)(=O)c1ccc(F)cc1F [Compound I-278, N-(6-chloro-5-{[(2,4-difluorophenyl)sulfonyl]amino}-4-ethyl-3,4′-bipyridin-2′-yl)cyclopropanecarboxamide]",10 to 50 nM,
"CC(=O)Nc1cc(-c2cnc(C)c(NS(=O)(=O)C3CC3)c2)ccn1 [Compound I-114, N-{5-[(cyclopropylsulfonyl)amino]-6-methyl-3,4′-bipyridin-2′-yl]acetamide]",10 to 50 nM,
"CC(=O)Nc1cc(-c2cnc(N)c(S(=O)(=O)Cc3ccccc3C(F)(F)F)c2)ccn1 [Compound I-50, N-(6-amino-5-{[2-(trifluoromethyl)benzyl]sulfonyl}-3,4′-bipyridin-2′-yl)acetamide]",10 to 50 nM,
CC(=O)Nc1cc(-c2cncc(N3CCOc4cc(F)ccc4S3(=O)=O)c2)ccn1 [Compound I-405],10 to 50 nM,
"Cc1ncc(-c2ccnc(Nc3ccccn3)c2)cc1NS(=O)(=O)c1ccc(F)cc1F [Compound I-297, 2,4-difluoro-N-[6-methyl-2′-(pyridin-2-ylamino)-3,4′-bipyridin-5-yl]benzenesulfonamide]",10 to 50 nM,
"CC(=O)Nc1cc(-c2cnc(NCC3CC3)c(N)c2)ccn1 [Compound I-53, N-{5-amino-6-{(cyclopropylmethyl)amino]-3,4′-bipyridin-2′-yl}acetamide]",> 100 nM,
"CCc1ccc(S(=O)(=O)Nc2cc(-c3ccnc(NC(C)=O)c3)cnc2C)cc1 [Compound I-44, N-(5-{[(4-ethylphenyl)sulfonyl]amino}-6-methyl-3,4′-bipyridin-2′-yl)acetamide]",< 10 nM,
"Cc1nccc(Nc2cc(-c3cnc(C)c(C(=O)N4CCCC4)c3)ccn2)n1 [Compound I-315, {6-methyl-2′-[(2-methylpyrimidin-4-yl)amino]-3,4′-bipyridin-5-yl}(pyrrolidin-1-yl)methanone]",10 to 50 nM,
"CC(=O)Nc1cc(-c2cnc(N)c(S(=O)(=O)Cc3ccc(Cl)cc3)c2)ccn1 [Compound I-99, N-[6-amino-5-[(4-chlorobenzyl)sulfonyl]-3,4′-bipyridin-2′-yl]acetamide]",10 to 50 nM,
"CC(=O)Nc1cc(-c2cnc3ccn(S(=O)(=O)C4CC4)c3c2)ccn1 [Compound I-199, N-{4-[1-(cyclopropylsulfonyl)-1H-pyrrolo[3,2-b]pyridin-6-yl]pyridin-2-yl}acetamide]",< 10 nM,
"Cc1nc(Nc2cc(-c3cnc(Cl)c(NS(=O)(=O)c4ccc(F)cc4F)c3C)ccn2)ccc1C#N [Compound I-238, N-[6-chloro-2′-[(5-cyano-6-methylpyridin-2-yl)amino]-4-methyl-3,4′-bipyridin-5-yl]-2,4-difluorobenzenesulfonamide]",< 10 nM,93%

# — US9751854B2 (Millennium Pharmaceuticals, Inc., priority 2014, dated 2017)
